For experiment [1], the target named is T1, PBP3 from Acinetobacter baumannii (ATCC 19606) (Acinetobacter baumannii, UniProt A0ABX6CK25).
T1 sequence (A0ABX6CK25 64-610): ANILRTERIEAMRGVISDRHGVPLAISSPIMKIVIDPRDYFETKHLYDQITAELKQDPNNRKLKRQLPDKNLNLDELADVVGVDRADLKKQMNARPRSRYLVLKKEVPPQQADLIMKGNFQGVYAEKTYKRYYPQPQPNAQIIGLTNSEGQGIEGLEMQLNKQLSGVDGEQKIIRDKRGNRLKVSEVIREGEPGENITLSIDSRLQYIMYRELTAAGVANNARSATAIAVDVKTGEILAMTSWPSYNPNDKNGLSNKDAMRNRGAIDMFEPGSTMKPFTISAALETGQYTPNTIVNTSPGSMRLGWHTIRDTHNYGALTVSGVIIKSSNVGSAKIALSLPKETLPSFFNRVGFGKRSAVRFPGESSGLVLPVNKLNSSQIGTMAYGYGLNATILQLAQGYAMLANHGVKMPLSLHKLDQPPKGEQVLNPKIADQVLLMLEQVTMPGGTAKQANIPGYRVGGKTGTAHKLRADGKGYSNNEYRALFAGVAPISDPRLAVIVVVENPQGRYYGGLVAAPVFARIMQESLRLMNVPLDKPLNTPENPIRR
In words: Bocillin-FL fluorescence polarization competition binding, A. baumannii PBP3. To be noted: fluorescence polarization competition binding assay using Bocillin-FL; read-out: A. baumannii PBP3 Potency. The source says: To determine the ability of boronic acid-based test PBP inhibitors to bind Penicillin Binding Proteins (PBPs), Bocillin-FL (fluorescently-labeled penicillin V; ThermoFisher Scientific) was used in a fluorescence polarization (FP) competition binding assay to assess inhibitor binding to PBP3 from Escherichia coli (K-12), PBP3 from Pseudomonas aeruginosa (PAO1), PBP1a and PBP3 from Acinetobacter baumannii (ATCC 19606), and PBP2 from Neisseria gonorrhoeae (FA19). PBPs were cloned and purified as described previously (E. coli PBP3, King, D. T, et al., ACS Infectious Diseases 2015, 1, 175-184; P. aeruginosa PBP3, Han et. al., PNAS 2010, 107 (51), 22002-22007; A. baumannii PBPs, Penwell et. al., Antimicrob. Agents Chemother. 2015, 59 (3), 1680-1689; N. gonorrhoeae PBP2, Singh et. al., J. Biol. Chem. 2019, 294 (38), 14020-14032). To establish assay conditions for competition binding, enzyme titration/saturation binding experiments were initially performed. Bocillin-FL was prepared at 0.2 μM in a buffer comprised of 50 mM Hepes (pH 8.0), 300 mM NaCl and 10% (v/v) glycerol for reactions with E. coli, P. aeruginosa and N. gonorrhoeae PBPs, and 25 mM Tris (pH 8.0), 200 mM NaCl, 10% (v/v) glycerol and 0.005% (v/v) Tween 20 for reactions with A. baumannii PBPs. Saturation binding was performed by mixing 40 μl of PBP solutions ranging in concentrations from 0-24 μM with 40 μl of the 0.2 μM Bocillin-FL solution, in individual wells of a black 384-well microplate. FP was measured immediately upon mixing (Excitation, 490 nm; Emission, 520 nm; g-factor, 0.96), using a Cytation3 (BioTek) microplate reader and measured continuously for up to 120 minutes. The FP response stabilized after 15 minutes for P. aeruginosa and A. baumannii PBP3, 30 minutes for E. coli PBP3 and A. baumannii PBP1a, and less than 1 minute for N. gonorrhoeae PBP2. […] The competition binding assay (80 μl final volume) was validated using beta-lactams and PBPs at final concentrations of: 1.5 μM for E. coli PBP3; 0.75 μM for P. aeruginosa PBP3; 1 μM for A. baumannii PBP1a; 0.2 μM for A. baumannii PBP3; and 0.25 μM for N. gonorrhoeae PBP2. Bocillin-FL was at 0.1 μM (0.05 μM with A. baumannii PBP1a) and beta-lactam concentrations ranged from 0-1,000 μM. E. coli PBP3 was incubated with increasing concentrations of ampicillin in a black 384-well microplate (Corning) for 30 minutes. P. aeruginosa PBP3 was incubated for 15 minutes with aztreonam, whereas A. baumannii PBP1a and PBP3 were incubated for 15 minutes with meropenem, and then Bocillin-FL was added followed immediately by the FP measurement for up to 60 minutes. […] The beta-lactam potency was reported as the concentration of beta-lactam required to reduce the amount of PBP bound-Bocillin-FL by 50% (EC50). […] The EC50 of aztreonam was determined to be <0.5 μM for P. aeruginosa PBP3. […] Binding assays for boronic acid PBP inhibitors were performed in an identical fashion for the respective PBPs.

Experiment [2] deals with A. baumannii CDC-0033. Briefly: microbe, parasite or virus in culture. It counts as cell-based. To be noted: Acinetobacter baumannii, CDC0033, read-out: MIC, A. baumannii CDC-0033.

Converted amounts (≈) assume the structure as drawn.

With `CS(=O)(=O)N1CCN(C(=O)N[C@@H](C(=O)N[C@H]2Cc3cccc(C(=O)O)c3OB2O)c2cc(F)c(P(=O)(O)O)c(F)c2)C1=O` (single isomer, unassigned) [Example 18], the IC50 in experiment [1] is less than 10 µM.
For `CS(=O)(=O)N1CCN(C(=O)N[C@@H](C(=O)N[C@H]2Cc3ccc(F)c(C(=O)O)c3OB2O)c2ccc(P(=O)(O)O)c(F)c2)C1=O` (single isomer, unassigned) [Example 19], the MIC in experiment [2] is more than 128 µg/mL. Further, in experiment [1], the IC50 was less than 10 µM.
Consider `O=C(O)c1c(F)ccc2c1OB(O)[C@@H](NC(=O)C(NC(=O)N1CCN(Cc3ccc(O)c(O)c3Cl)C(=O)C1=O)c1ccc(P(=O)(O)O)c(F)c1)C2` (stereo partly drawn) [Example 23, (3R)-3-(2-(4-(2-chloro-3,4-dihydroxybenzyl)-2,3-dioxopiperazine-1-carboxamido)-2-(3-fluoro-4-phosphonophenyl)acetamido)-7-fluoro-2-hydroxy-3,4-dihydro-2H-benzo[e][1,2]oxaborinine-8-carboxylic acid], for which the MIC in experiment [2] is less than 1 µg/mL. Further, the IC50 in experiment [1] was less than 10 µM.
On to `N[C@@H](C(=O)N[C@H]1Cc2cccc(C(=O)O)c2OB1O)c1ccc(P(=O)(O)O)cc1` (single isomer, unassigned) [Example 171], for which, in experiment [1], the IC50 was in the range of 50 to 250 µM.
For the compound `O=C(O)c1cccc2c1OB(O)[C@@H](NC(=O)C(NC(=O)N1CCN(Cc3ccc(O)c(O)c3Cl)C(=O)C1=O)c1ccc(P(=O)(O)O)cc1)C2` (stereo partly drawn) [Example 24, (3R)-3-(2-(4-(2-chloro-3,4-dihydroxybenzyl)-2,3-dioxopiperazine-1-carboxamido)-2-(4-phosphonophenyl)acetamido)-2-hydroxy-3,4-dihydro-2H-benzo[e][1,2]oxaborinine-8-carboxylic acid], in experiment [2], the MIC was less than 1 µg/mL. For the same compound, in experiment [1], the IC50 is less than 10 µM.
As for `CCN1CCN(C(=O)NC(C(=O)N[C@H]2Cc3cccc(C(=O)O)c3OB2O)c2ccc(CP(=O)(O)O)cc2)C(=O)C1=O` (stereo partly drawn) [Example 20, (3R)-3-(2-(4-ethyl-2,3-dioxopiperazine-1-carboxamido)-2-(4-(phosphonomethyl)phenyl)acetamido)-2-hydroxy-3,4-dihydro-2H-benzo[e][1,2]oxaborinine-8-carboxylic acid], the IC50 in experiment [1] was less than 10 µM.
As to `O=C(NCCN1CCN(C(=O)NC(C(=O)N[C@H]2Cc3ccc(F)c(C(=O)O)c3OB2O)c2ccc(P(=O)(O)O)cc2)C(=O)C1=O)c1ccc(O)c(O)c1Cl` (stereo partly drawn) [Example 120, (3R)-3-(2-(4-(2-(2-chloro-3,4-dihydroxybenzamido)ethyl)-2,3-dioxopiperazine-1-carboxamido)-2-(4-phosphonophenyl)acetamido)-7-fluoro-2-hydroxy-3,4-dihydro-2H-benzo[e][1,2]oxaborinine-8-carboxylic acid], the MIC in experiment [2] lay in the range of 2 to 4 µg/mL (≈ 2.53 to 5.05 µM). The IC50 in experiment [1] was less than 10 µM.
For the compound `NC(C(=O)N[C@H]1Cc2ccc(F)c(C(=O)O)c2OB1O)c1ccc(P(=O)(O)O)cc1` (stereo partly drawn) [Example 14, (3R)-3-(2-amino-2-(4-phosphonophenyl)acetamido)-7-fluoro-2-hydroxy-3,4-dihydro-2H-benzo[e][1,2]oxaborinine-8-carboxylic acid], the IC50 in experiment [1] was more than 250 µM.
Take `CS(=O)(=O)N1CCN(C(=O)NC(C(=O)N[C@H]2Cc3cccc(C(=O)O)c3OB2O)c2ccc(P(=O)(O)O)c(Cl)c2)C1=O` (stereo partly drawn) [Example 11, (3R)-3-(2-(3-chloro-4-phosphonophenyl)-2-(3-(methylsulfonyl)-2-oxoimidazolidine-1-carboxamido)acetamido)-2-hydroxy-3,4-dihydro-2H-benzo[e][1,2]oxaborinine-8-carboxylic acid]: the IC50 in experiment [1] was less than 10 µM.
On to `CC(=O)NC(C(=O)N[C@H]1Cc2cccc(C(=O)O)c2OB1O)c1ccc(P(=O)(O)O)cc1` (stereo partly drawn) [Example 26, (3R)-3-(2-acetamido-2-(4-phosphonophenyl)acetamido)-2-hydroxy-3,4-dihydro-2H-benzo[e][1,2]oxaborinine-8-carboxylic acid], for which the IC50 in experiment [1] is less than 10 µM.
`O=C(O)c1c(F)ccc2c1OB(O)[C@@H](NC(=O)C(NC(=O)N1CCN(Cc3ccc(O)c(O)c3Cl)C1=O)c1ccc(P(=O)(O)O)cc1)C2` (stereo partly drawn) [Example 46, (3R)-3-(2-(3-(2-chloro-3,4-dihydroxybenzyl)-2-oxoimidazolidine-1-carboxamido)-2-(4-phosphonophenyl)acetamido)-7-fluoro-2-hydroxy-3,4-dihydro-2H-benzo[e][1,2]oxaborinine-8-carboxylic acid]: in experiment [1], the IC50 was less than 10 µM.
On the same count and under the same terms, the figure for `CS(=O)(=O)N1CCN(C(=O)NC(C(=O)N[C@H]2Cc3cccc(C(=O)O)c3OB2O)c2ccc(P(=O)(O)O)c(F)c2O)C1=O` (stereo partly drawn) [Example 48, (3R)-3-(2-(3-fluoro-2-hydroxy-4-phosphonophenyl)-2-(3-(methylsulfonyl)-2-oxoimidazolidine-1-carboxamido)acetamido)-2-hydroxy-3,4-dihydro-2H-benzo[e][1,2]oxaborinine-8-carboxylic acid] is 50 to 250 µM; for `CS(=O)(=O)N1CCN(C(=O)N[C@@H](C(=O)N[C@H]2Cc3cccc(C(=O)O)c3OB2O)c2ccc(P(=O)(O)O)c(F)c2)C1=O` (single isomer, unassigned) [Example 15] it is less than 10 µM; for `CS(=O)(=O)N1CCN(C(=O)N[C@@H](C(=O)N[C@H]2Cc3ccc(F)c(C(=O)O)c3OB2O)c2ccc(P(=O)(O)O)c(F)c2F)C1=O` [Example 16, (R)-3-((R)-2-(2,3-difluoro-4-phosphonophenyl)-2-(3-(methylsulfonyl)-2-oxoimidazolidine-1-carboxamido)acetamido)-7-fluoro-2-hydroxy-3,4-dihydro-2H-benzo[e][1,2]oxaborinine-8-carboxylic acid] it is less than 10 µM.
Still for that read-out and setting: the figure for `CCN1CCN(C(=O)NC(C(=O)N[C@H]2Cc3cccc(C(=O)O)c3OB2O)c2ccc(P(=O)(O)O)c(O)c2)C(=O)C1=O` (stereo partly drawn) [Example 21, (3R)-3-(2-(4-ethyl-2,3-dioxopiperazine-1-carboxamido)-2-(3-hydroxy-4-phosphonophenyl)acetamido)-2-hydroxy-3,4-dihydro-2H-benzo[e][1,2]oxaborinine-8-carboxylic acid] is less than 10 µM; for `CS(=O)(=O)N1CCN(C(=O)NC(C(=O)N[C@H]2Cc3cccc(C(=O)O)c3OB2O)c2ccc(P(=O)(O)O)c(O)c2)C1=O` (stereo partly drawn) [Example 17, (3R)-2-hydroxy-3-(2-(3-hydroxy-4-phosphonophenyl)-2-(3-(methylsulfonyl)-2-oxoimidazolidine-1-carboxamido)acetamido)-3,4-dihydro-2H-benzo[e][1,2]oxaborinine-8-carboxylic acid] it is less than 10 µM; for `CCN1CCN(C(=O)N[C@@H](C(=O)N[C@H]2Cc3ccc(F)c(C(=O)O)c3OB2O)c2ccc(P(=O)(O)O)cc2)C(=O)C1=O` (single isomer, unassigned) [Example 10] it is less than 10 µM.
Same read-out and setting: the result for `CS(=O)(=O)N1CCN(C(=O)N[C@@H](C(=O)N[C@H]2Cc3cccc(C(=O)O)c3OB2O)c2ccc(P(=O)(O)O)c(F)c2F)C1=O` (single isomer, unassigned) [Example 13] reads less than 10 µM.
